Test results from patent US20140163082A1, “PYRAZOLYL COMPOUNDS FOR USE IN REVERSING REACTIVE GLIOSIS” (priority 2011, published 2014).

System: retinal vasculature in OIR mouse model
Experiment: Morphometric assessment of retinal vascular density (CD31 staining), OIR mouse model
Assay type: in vivo, C57BL/6J mice
Conditions: OIR mice, P17; DMSO 88, normoxic 154
Procedure: Retinal NV was induced in newborn mice as described previously. Briefly, P7 mice were exposed with their nursing mother, for 5 days [between P7 and P12] to hyperoxic conditions, by incubating them in an airtight chamber [PROOX 110 chamber O2 controller; Biospherix Ltd., Redfield, N.Y.] ventilated by a mixture of O2 and air to a final oxygen fraction of 75±2%. These incubation conditions induced vaso-obliteration and subsequent cessation of vascular development in the capillary beds of the central retina. At P12, the mice were allowed to recover in normal room air conditions and maintained for another 5 days [till P17], the day in which peak disease occurs. A condition of relative hypoxia resulted between P12 and P17, and extensive retinal NV developed in 100% of the mice. […]
Retinas were harvested at various time points and fixed with 4% paraformaldehyde (PFA) and methanol followed by blocking in 50% FBS/20% normal goat serum for 1 hour at room temperature. […] Quantitation of PECAM/CD-31 immunostaining was processed morphometrically using Metamorph™ imaging software [Universal Imaging, Sunnyvale, Calif.] to determine the area of positive staining for YC-1-treatedt vs. control group. […] All results were expressed as meant S.E.M. Differences were considered statistically significant at **P<0.01.

With `OCc1ccc(-c2nn(Cc3ccccc3)c3ccccc23)o1` [YC-1, 3-(5′-hydroxymethyl-2′-furyl)-1-benzylindazole] as the molecule, how does the “mean vascular density (endothelial cells per reticle square, CD31)” value read?
Its value is 148±2.
